Reference: patent publication US20210292340A1, “CELL NECROSIS INHIBITOR, PREPARATION METHOD THEREFOR AND USE THEREOF” (SHANGHAI INSTITUTE OF ORGANIC CHEMISTRY, CHINESE ACADEMY OF …, priority 2018, published 2021)
pKi: −log10 of the molar value. Read-outs that look alike come from different tables or passages of the source.

Legend:
Jurkat (FADD−/−) cells = experiment: Inhibition of TNF-induced programmed Jurkat (FADD−/−) cell necrosis (Cell Titer-Glo); assay type: cell-based, human; conditions: 20 h, read-out: Cellular IC50 (M) Jurkat (FADD−/−)
Description: Two replicate wells were set for each concentration of each compound.
Jurkat (FADD^−/−) cells (human-derived peripheral blood leukemia T cell line, with FADD gene knocked out) were cultured in vitro. After growing to logarithmic growth phase, the cells were harvested, and centrifuged at 1000 rpm for 5 min. The supernatant was discarded, and the cells were resuspended in fresh medium and adjusted to a cell density of 5×10^5/mL. The cell suspension was added to the culture plate containing the drug (40 μL per well). In the treatment groups, 10 μL of TNF (tumor necrosis factor, final concentration 10 ng/mL) diluted with the cell culture medium was added to each well, and incubated for 20 h in a cell incubator (37° C., 5% CO2). Subsequently, 50 μL of Cell Titer-Glo solution was added to each well and incubated at room temperature for 10 min. Then, the luminescence was detected on BioTek plate reader to measure the intracellular ATP level. The effect of the test compounds in inhibiting TNF-induced cell necrosis was calculated from the full-activity well and background well (with the untreated DMSO control well as 100% cell viability), and the half inhibitory concentration (IC50) of the compound was calculated by Graphpad Prism statistical software.

human RIP1 = target: T1, human RIP1 (Homo sapiens, UniProt Q13546); experiment: Inhibition of ADP-Glo RIP1 kinase activity; assay type: biochemical
T1 construct: made in house; host or cells: Sf-9 insect cells
T1 sequence (Q13546 1-671): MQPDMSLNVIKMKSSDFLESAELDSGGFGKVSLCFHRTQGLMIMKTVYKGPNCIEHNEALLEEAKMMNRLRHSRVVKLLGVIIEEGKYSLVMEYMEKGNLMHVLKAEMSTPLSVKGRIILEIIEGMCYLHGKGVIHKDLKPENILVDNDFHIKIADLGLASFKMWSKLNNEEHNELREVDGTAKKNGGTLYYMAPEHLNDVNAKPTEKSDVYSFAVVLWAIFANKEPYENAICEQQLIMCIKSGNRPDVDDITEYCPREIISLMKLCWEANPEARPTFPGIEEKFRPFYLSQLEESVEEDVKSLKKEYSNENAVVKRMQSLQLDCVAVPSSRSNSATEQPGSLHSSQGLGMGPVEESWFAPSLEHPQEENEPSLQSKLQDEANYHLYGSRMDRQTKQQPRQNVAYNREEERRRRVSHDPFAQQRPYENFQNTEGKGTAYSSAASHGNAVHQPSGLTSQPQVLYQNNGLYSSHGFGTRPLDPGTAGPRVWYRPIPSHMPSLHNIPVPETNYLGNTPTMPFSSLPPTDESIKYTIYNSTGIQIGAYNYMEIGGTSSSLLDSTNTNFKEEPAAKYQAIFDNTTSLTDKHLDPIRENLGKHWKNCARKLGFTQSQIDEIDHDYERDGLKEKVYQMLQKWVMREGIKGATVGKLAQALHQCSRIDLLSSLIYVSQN
Description: The human RIP1 gene was transduced into Sf-9 insect cells, and the RIP1 protein was purified by Ni+ affinity chromatography and then by S-200 molecular sieve to remove the protein multimers. The obtained RIP1 protein was stored at −70° C., and the activity of the RIP1 protein in catalyzing autophosphorylation was detected by the ADP-Glo™ Kinase Activity Assay Kit (Promega) and the inhibitory activity of the drug against the RIP1 kinase was determined.
100 nL of the compound was transferred to a 384-well assay plate. Two replicate wells were set for each concentration of each drug.
The RIP1 enzyme solution and ATP solution were formulated in an assay buffer (containing 50 mM HEPES pH 7.5, 30 mM MgCl2, 50 mM NaCl, 1 mM DTT, 0.02% CHAPS, and 0.5 mg/ml BSA). Then, 5 μL of the RIP1 enzyme solution (final concentration 50 nM) was added to the assay plate and incubated at room temperature for 1 h. 5 μL of the ATP solution (final concentration 10 μM) was added to the assay plate, and incubate at room temperature for 4 h. Then 5 μL of ADP-Glo reagent was added to the assay plate, and incubated at room temperature for 60 min. 5 μL of a kinase assay solution was added to the assay plate, and incubated at room temperature for 30 min. After readout on Envision, the inhibition rate in each well was calculated from the full-activity well and the background well, and the Ki of the compound was calculated by GraphPad Prism 7 software (using the Morrision equation to fit the curve and calculate the Ki).

[1] = Homo sapiens, Jurkat, TNF 10 ng/mL, intracellular ATP level
[2] = TNF 10 ng/mL, intracellular ATP level

SMILES | IC50 (Jurkat (FADD−/−) cells; [1]) | pKi (human RIP1) | IC50 (Jurkat (FADD−/−) cells; [2]) | IC50 (Jurkat (FADD−/−) cells; Homo sapiens, Jurkat)
CN1C(=O)[C@@H](NC(=O)c2cn(Cc3ccccc3)cn2)COc2ccc3ncccc3c21 [RIP1-099] | 6.92e-09 M | 7.42 | – | –
CN1C(=O)[C@@H](NC(=O)c2noc(Cc3ccccc3)n2)COc2cc3[nH]nnc3cc21 [RIP1-140] | 1.37e-09 M | 7.30 | – | –
CN1C(=O)[C@@H](NC(=O)c2ncn(Cc3ccccc3)n2)COc2ccc3cnccc3c21 [RIP1-108] | 1.64e-10 M | 7.90 | – | –
CN1C(=O)[C@@H](NC(=O)c2cc(Cc3ccccc3)on2)COc2cc3[nH]nc(Cl)c3cc21 [RIP1-033] | 6.8e-10 M | 7.97 | – | –
CN1C(=O)[C@@H](NC(=O)c2cn(Cc3ccccc3)cn2)COc2ccc3cnccc3c21 [RIP1-109] | 7.22e-10 M | 8.16 | – | –
CN1C(=O)[C@@H](NC(=O)c2nnc(Cc3ccccc3)o2)COc2cc3occc3cc21 [RIP1-125] | 8.43e-10 M | 7.71 | – | –
Cc1ccc(Cc2cc(C(=O)N[C@H]3COc4cc5nccnc5cc4N(C)C3=O)nn2C)cc1 [RIP1-133] | 5.3e-08 M | 7.64 | – | –
CN1C(=O)[C@@H](NC(=O)c2nnc(Cc3ccccc3)[nH]2)COc2cc3nccnc3cc21 [RIP1-135] | 4.25e-09 M | 7.67 | – | –
Cc1nc2cc3c(cc2[nH]1)OC[C@@H](NC(=O)c1cncn1Cc1ccccc1)C(=O)N3C (stereo in doubt) [RIP1-069] | 4.52e-09 M | 7.50 | – | –
CN1C(=O)[C@@H](NC(=O)c2nnn(Cc3ccccc3)n2)COc2cc3occc3cc21 [RIP1-122] | 2.26e-10 M | 7.81 | – | –
CN1C(=O)[C@@H](NC(=O)c2nnc(Cc3ccccc3)[nH]2)COc2ccc3ncccc3c21 [RIP1-097] | 1.2e-09 M | 7.63 | 2.28e-09 M | –
COc1ncnc2cc3c(cc12)N(C)C(=O)[C@@H](NC(=O)c1ncn(Cc2ccccc2)n1)CO3 [RIP1-145] | 4.61e-10 M | 7.98 | – | –
CN1C(=O)[C@@H](NC(=O)c2ncn(Cc3ccccc3)n2)COc2ccc3ncccc3c21 [RIP1-098] | 7.25e-10 M | 7.68 | – | –
CN1C(=O)[C@@H](NC(=O)c2nnc(Cc3ccccc3)o2)COc2cc3nccnc3cc21 [RIP1-134] | 9.03e-09 M | 7.66 | – | –
CN1C(=O)[C@@H](NC(=O)c2cn(Cc3ccccc3)cn2)COc2cc3[nH]nnc3cc21 [RIP1-137] | 7.31e-09 M | 7.88 | – | –
CN1C(=O)[C@@H](NC(=O)c2nnc(Cc3ccccc3)o2)COc2cc3[nH]nnc3cc21 [RIP1-153] | – | 7.89 | – | 1.52e-09 M
CN1C(=O)[C@@H](NC(=O)c2cn(Cc3ccccc3)nn2)COc2cc3occc3cc21 [RIP1-121] | – | 7.49 | – | 1.37e-08 M
COc1ncnc2cc3c(cc12)N(C)C(=O)[C@@H](NC(=O)c1n[nH]c(Cc2ccccc2)n1)CO3 [RIP1-146] | 1.85e-09 M | 7.88 | – | –
CN1C(=O)[C@@H](NC(=O)c2cc(Cc3ccccc3)on2)COc2ccc3ncccc3c21 [RIP1-101] | 5.5e-09 M | 7.76 | – | –
CN1C(=O)[C@@H](NC(=O)c2cn(Cc3ccccc3)nn2)COc2cc3[nH]nc(Cl)c3cc21 [RIP1-035] | 1.94e-09 M | 8.11 | – | –
CN1C(=O)[C@@H](NC(=O)c2cc(Cc3ccccc3)on2)COc2cc3[nH]nnc3cc21 [RIP1-142] | 1.86e-09 M | 7.72 | – | –
CN1C(=O)[C@@H](NC(=O)c2ncn(Cc3ccccc3)n2)COc2cc3[nH]nc(Cl)c3cc21 [RIP1-032] | – | 7.69 | – | 2.4e-10 M
CN1C(=O)[C@@H](NC(=O)c2cc(Cc3ccccc3)on2)COc2cc3occc3cc21 [RIP1-126] | 2.61e-09 M | 7.59 | – | –
CN1C(=O)[C@@H](NC(=O)c2cc(Cc3ccccc3)on2)COc2ccc3cnccc3c21 [RIP1-111] | 1.16e-09 M | 7.73 | – | –

SMILES | IC50 (Jurkat (FADD−/−) cells; [1]) | pKi (human RIP1) | IC50 (Jurkat (FADD−/−) cells; [2]) | IC50 (Jurkat (FADD−/−) cells; Homo sapiens, Jurkat)
COc1ncnc2cc3c(cc12)N(C)C(=O)[C@@H](NC(=O)c1cn(Cc2ccccc2)cn1)CO3 [RIP1-147] | 1.69e-09 M | 7.78 | – | –
CN1C(=O)[C@@H](NC(=O)c2ncn(Cc3ccccc3)n2)COc2cc3[nH]nnc3cc21 [RIP1-136] | 9.34e-09 M | 7.75 | – | –
CN1C(=O)[C@@H](NC(=O)c2nnc(Cc3ccccc3)[nH]2)COc2cc3occc3cc21 [RIP1-127] | 3.28e-09 M | 7.79 | – | –
CN1C(=O)[C@@H](NC(=O)c2nnn(Cc3ccccc3)n2)COc2cc3[nH]nnc3cc21 [RIP1-139] | 7.81e-10 M | 7.69 | – | –
CN1C(=O)[C@@H](NC(=O)c2cc(Cc3ccccc3)on2)COc2cc3[nH]ncc3cc21 [RIP1-021] | 5.8e-10 M | 7.99 | – | –
CN1C(=O)[C@@H](NC(=O)c2cn(Cc3ccccc3)nn2)COc2cc3[nH]nnc3cc21 [RIP1-138] | 1.68e-08 M | 7.70 | – | –
CN1C(=O)[C@@H](NC(=O)c2ncn(Cc3ccccc3)n2)COc2cc3occc3cc21 [RIP1-119] | 5.81e-10 M | 7.72 | – | –
CN1C(=O)[C@@H](NC(=O)c2cn(Cc3ccccc3)nn2)COc2ccc3ncccc3c21 [RIP1-100] | 3.27e-08 M | 7.69 | – | –
CN1C(=O)[C@@H](NC(=O)c2cn(Cc3ccccc3)nn2)COc2ccc3cnccc3c21 [RIP1-110] | 4.44e-09 M | 7.84 | – | –
CN1C(=O)[C@@H](NC(=O)c2ncn(Cc3ccccc3)n2)CSc2cc3occc3cc21 [RIP1-037] | 1.29e-10 M | – | – | –
CN1C(=O)[C@@H](NC(=O)c2n[nH]c(Cc3ccccc3F)n2)COc2ccc3cnccc3c21 [RIP1-163] | 1.3e-09 M | – | – | –
CN1C(=O)[C@@H](NC(=O)c2nnc(Cc3ccccc3)[nH]2)COc2cc3ocnc3cc21 [RIP1-218] | 1.24e-09 M | – | – | –
COc1ncnc2cc3c(cc12)N(C)C(=O)[C@@H](NC(=O)c1cc(Oc2ccccc2)ccn1)CO3 [RIP1-175] | 1.46e-09 M | – | – | –
CN1C(=O)[C@@H](NC(=O)c2n[nH]c(Cc3ccccc3)n2)COc2ccccc21 [GSK2982772, reference compound] | 9.7e-10 M | – | – | –
Cc1ccc(Cc2cc(C(=O)N[C@H]3CSc4cc5[nH]ccc5cc4N(C)C3=O)nn2C)cc1 [RIP1-045] | > 2e-06 M | – | – | –
CN1C(=O)[C@@H](NC(=O)c2cn(Cc3ccccc3)cn2)CSc2cc3c(ccn3Cc3ccccc3)cc21 [RIP1-088] | > 2e-06 M | – | – | –
CN1C(=O)[C@@H](NC(=O)c2cn(Cc3ccccc3)nn2)CSc2cc3c(ccn3C)cc21 [RIP1-048] | 5.1e-09 M | – | – | –
CN1C(=O)[C@@H](NC(=O)c2cnn(Cc3ccccc3)c2)CSc2cc3c(ccn3C)cc21 [RIP1-010] | 9.6e-08 M | – | – | –
CN1C(=O)[C@@H](NC(=O)c2n[nH]c(Cc3ccccc3F)n2)COc2ccc3ncccc3c21 [RIP1-170] | 1.74e-09 M | – | 3e-09 M | –
CN1C(=O)[C@@H](NC(=O)c2cc(Oc3cccnc3)ccn2)COc2cc3nccnc3cc21 [RIP1-214] | 2.41e-08 M | – | – | –
CN1C(=O)[C@@H](NC(=O)c2cccc(Cc3ccccc3)c2)CSc2cc3c(ccn3C)cc21 [RIP1-011] | 3.24e-07 M | – | – | –
CN1C(=O)[C@@H](NC(=O)c2ncn(Cc3ccccc3)n2)COc2cc3nccnc3cc21 [RIP1-128] | 4.83e-07 M | – | – | –
CN1C(=O)[C@@H](NC(=O)c2nnc(Cc3cccc(F)c3)[nH]2)COc2cc3ocnc3cc21 [RIP1-217] | 1.38e-09 M | – | – | –
CN1C(=O)[C@@H](NC(=O)c2cncn2Cc2ccccc2)CSc2cc3c(ccn3C)cc21 [RIP1-054] | > 2e-06 M | – | – | –
